Publication PMC5218480 (PLoS ONE, 2017)

System: MV-4-11 cells
Assay: Gene expression microarray analysis (Affymetrix PrimeView) and GSEA
Format: cell-based, human
Set-up: RFU PODN (11730768_x_at) / Fold change /veh PODN (11730768_x_at) / RFU LINC00158 (11744669_a_at) / Fold change /veh LINC00158 (11744669_a_at) / RFU DUSP10 (11751237_a_at) / Fold change /veh DUSP10 (11751237_a_at) / RFU ID3 (11757404_x_at) / Fold change /veh ID3 (11757404_x_at) / RFU PLEKHG5 (11737974_s_at) / Fold change /veh PLEKHG5 (11737974_s_at) / RFU LRRC4B (11730491_at) / Fold change /veh LRRC4B (11730491_at) / RFU GIMAP4 (11747438_a_at) / Fold change /veh GIMAP4 (11747438_a_at) / RFU KRT8 (11758183_x_at) / Fold change /veh KRT8 (11758183_x_at) / RFU CNN1 (11734310_a_at) / Fold change /veh CNN1 (11734310_a_at) / RFU VPS37D (11726825_at) / Fold change /veh VPS37D (11726825_at) / RFU C10orf10 (11716522_x_at) / Fold change /veh C10orf10 (11716522_x_at) / RFU KIR2DL2 /// KIR2DL4 /// KIR2DL5A /// KIR2DL5B /// KIR2DS1 /// KIR2DS2 /// KIR2DS3 /// KIR2DS4 /// KIR3DL3 /// KIR3DL3 /// KIR3DS1 (11738374_at) / Fold change /veh KIR2DL2 /// KIR2DL4 /// KIR2DL5A /// KIR2DL5B /// KIR2DS1 /// KIR2DS2 /// KIR2DS3 /// KIR2DS4 /// KIR3DL3 /// KIR3DL3 /// KIR3DS1 (11738374_at) / RFU C1QL1 (11718748_at) / Fold change /veh C1QL1 (11718748_at) / RFU TMPRSS4 (11747572_a_at) / Fold change /veh TMPRSS4 (11747572_a_at) / RFU HAMP (11756126_x_at) / Fold change /veh HAMP (11756126_x_at) / RFU RNFT2 (11725882_a_at) / Fold change /veh RNFT2 (11725882_a_at) / RFU NR4A2 (11747474_a_at) / Fold change /veh NR4A2 (11747474_a_at) / RFU ABCC12 (11746883_a_at) / Fold change /veh ABCC12 (11746883_a_at) / RFU TMEM136 (11760407_x_at) / Fold change /veh TMEM136 (11760407_x_at) / RFU CLDN22 /// WWC2 (11732394_at) / Fold change /veh CLDN22 /// WWC2 (11732394_at) / RFU HLA-DPB1 (11760878_x_at) / Fold change /veh HLA-DPB1 (11760878_x_at) / RFU SPINT1 (11716480_a_at) / Fold change /veh SPINT1 (11716480_a_at) / RFU GAP43 (11754022_s_at) / Fold change /veh GAP43 (11754022_s_at) / RFU A4GNT (11735810_at) / Fold change /veh A4GNT (11735810_at) / RFU PRB3 (11715151_x_at) / Fold change /veh PRB3 (11715151_x_at) / RFU TUBB4B (11761932_at) / Fold change /veh TUBB4B (11761932_at) / RFU CAPN14 (11732068_a_at) / Fold change /veh CAPN14 (11732068_a_at) / RFU TMCC2 (11721928_a_at) / Fold change /veh TMCC2 (11721928_a_at) / RFU IRGQ (11745062_a_at) / Fold change /veh IRGQ (11745062_a_at) / RFU FAM174B (11720279_a_at) / Fold change /veh FAM174B (11720279_a_at) / RFU TMPRSS4 (11748680_a_at) / Fold change /veh TMPRSS4 (11748680_a_at) / RFU FAM212B (11763350_a_at) / Fold change /veh FAM212B (11763350_a_at) / RFU PLEKHG5 (11743358_a_at) / Fold change /veh PLEKHG5 (11743358_a_at) / RFU ZSCAN30 (11745921_a_at) / Fold change /veh ZSCAN30 (11745921_a_at) / RFU CMKLR1 (11741424_a_at) / Fold change /veh CMKLR1 (11741424_a_at) / RFU LOC101060620 /// MAPK8IP1 (11723275_at) / Fold change /veh LOC101060620 /// MAPK8IP1 (11723275_at) / RFU SPTSSB (11747773_x_at) / Fold change /veh SPTSSB (11747773_x_at) / RFU PRSS12 (11739890_at) / Fold change /veh PRSS12 (11739890_at) / RFU BIN1 (11741810_x_at) / Fold change /veh BIN1 (11741810_x_at) / RFU WNT11 (11732464_a_at) / Fold change /veh WNT11 (11732464_a_at) / RFU C10orf10 (11716521_a_at) / Fold change /veh C10orf10 (11716521_a_at) / RFU C5orf56 (11738089_at) / Fold change /veh C5orf56 (11738089_at) / RFU CYB561 (11721691_x_at) / Fold change /veh CYB561 (11721691_x_at) / RFU ANKRD19P (11752326_a_at) / Fold change /veh ANKRD19P (11752326_a_at) / RFU OR2T12 /// OR2T33 /// OR2T8 (11738714_s_at) / Fold change /veh OR2T12 /// OR2T33 /// OR2T8 (11738714_s_at) / RFU VCAN (11748164_a_at) / Fold change /veh VCAN (11748164_a_at) / RFU JSRP1 (11732532_at) / Fold change /veh JSRP1 (11732532_at) / RFU KRTAP10-11 (11738290_x_at) / Fold change /veh KRTAP10-11 (11738290_x_at) / RFU MYO3A (11730013_a_at) / Fold change /veh MYO3A (11730013_a_at) / RFU EBF3 (11725865_a_at) / Fold change /veh EBF3 (11725865_a_at) / RFU CAMK2N1 (11719241_x_at) / Fold change /veh CAMK2N1 (11719241_x_at) / RFU C5orf56 (11738088_a_at) / Fold change /veh C5orf56 (11738088_a_at) / RFU OLFML3 (11715873_a_at) / Fold change /veh OLFML3 (11715873_a_at) / RFU LOC100653217 /// NTM (11731650_a_at) / Fold change /veh LOC100653217 /// NTM (11731650_a_at) / RFU MAPK11 (11762145_a_at) / Fold change /veh MAPK11 (11762145_a_at) / RFU FIZ1 (11724087_x_at) / Fold change /veh FIZ1 (11724087_x_at) / RFU OASL (11726364_x_at) / Fold change /veh OASL (11726364_x_at) / RFU SOX15 (11748057_x_at) / Fold change /veh SOX15 (11748057_x_at) / RFU CD79A (11719716_a_at) / Fold change /veh CD79A (11719716_a_at) / RFU HIST1H1D (11736915_at) / Fold change /veh HIST1H1D (11736915_at) / RFU CASKIN2 (11723855_a_at) / Fold change /veh CASKIN2 (11723855_a_at) / RFU LOC730098 (11760151_x_at) / Fold change /veh LOC730098 (11760151_x_at) / RFU OR4N2 (11742367_at) / Fold change /veh OR4N2 (11742367_at) / RFU PRRT2 (11749266_a_at) / Fold change /veh PRRT2 (11749266_a_at) / RFU SNX32 (11753110_a_at) / Fold change /veh SNX32 (11753110_a_at) / RFU CDHR5 (11726645_a_at) / Fold change /veh CDHR5 (11726645_a_at) / RFU RCAN1 (11760418_a_at) / Fold change /veh RCAN1 (11760418_a_at) / RFU FAM167A (11723789_a_at) / Fold change /veh FAM167A (11723789_a_at) / RFU FAM26E (11764081_at) / Fold change /veh FAM26E (11764081_at) / RFU ISYNA1 (11749810_s_at) / Fold change /veh ISYNA1 (11749810_s_at) / RFU ACY1 (11761880_at) / Fold change /veh ACY1 (11761880_at) / RFU 11764098_at / Fold change /veh 11764098_at / RFU SAMD14 (11745864_x_at) / Fold change /veh SAMD14 (11745864_x_at) / RFU NPB (11741838_a_at) / Fold change /veh NPB (11741838_a_at) / RFU TMPRSS6 (11731388_a_at) / Fold change /veh TMPRSS6 (11731388_a_at) / RFU KRTAP10-2 (11738614_at) / Fold change /veh KRTAP10-2 (11738614_at) / RFU ARHGAP8 /// PRR5-ARHGAP8 (11727945_x_at) / Fold change /veh ARHGAP8 /// PRR5-ARHGAP8 (11727945_x_at) / RFU KRTAP5-7 /// NADSYN1 (11734609_at) / Fold change /veh KRTAP5-7 /// NADSYN1 (11734609_at) / RFU RASL12 (11751679_a_at) / Fold change /veh RASL12 (11751679_a_at) / RFU CDKN2B (11736163_a_at) / Fold change /veh CDKN2B (11736163_a_at) / RFU PRF1 (11729649_at) / Fold change /veh PRF1 (11729649_at) / RFU, ZNF638 /// ZNF638-IT1 / Fold change vs veh, ZNF638 /// ZNF638-IT1 / RFU, PANK3 / Fold change vs veh, PANK3 / RFU, SH3YL1 / Fold change vs veh, SH3YL1 / RFU, ZEB2 / Fold change vs veh, ZEB2 / RFU, NRIP1 / Fold change vs veh, NRIP1 / RFU, PTTG1IP / Fold change vs veh, PTTG1IP / RFU, CAPN2 / Fold change vs veh, CAPN2 / RFU, MED14 / Fold change vs veh, MED14 / RFU, SNORA58 / Fold change vs veh, SNORA58 / RFU, C1orf63 / Fold change vs veh, C1orf63 / RFU, LRRFIP1 / Fold change vs veh, LRRFIP1 / RFU, NDUFAF7 / Fold change vs veh, NDUFAF7 / RFU, SLC12A2 / Fold change vs veh, SLC12A2 / RFU, IBTK / Fold change vs veh, IBTK / RFU, ESF1 / Fold change vs veh, ESF1 / Fold change vs veh, TMEM50B / RFU, TAOK1 / Fold change vs veh, TAOK1 / RFU, ACBD3 / Fold change vs veh, ACBD3 / RFU, TMA16 / Fold change vs veh, TMA16 / RFU, RWDD3 / Fold change vs veh, RWDD3 / RFU, BCAT1 / Fold change vs veh, BCAT1 / RFU, EDEM3 / Fold change vs veh, EDEM3 / RFU, TMEM33 / Fold change vs veh, TMEM33 / RFU, WDR75 / Fold change vs veh, WDR75 / RFU, AHCTF1 / Fold change vs veh, AHCTF1 / RFU, TFRC / Fold change vs veh, TFRC / RFU, ZDHHC17 / Fold change vs veh, ZDHHC17 / RFU, NOM1 / Fold change vs veh, NOM1 / RFU, ARL8B / Fold change vs veh, ARL8B / RFU, ZBTB11 / Fold change vs veh, ZBTB11 / RFU, TAMM41 / Fold change vs veh, TAMM41 / RFU, KIAA1704 /// LOC100996395 / Fold change vs veh, KIAA1704 /// LOC100996395 / RFU, ING1 / Fold change vs veh, ING1 / RFU, TRMT61B / Fold change vs veh, TRMT61B / RFU, FUBP3 / Fold change vs veh, FUBP3 / RFU, TP53 / Fold change vs veh, TP53 / RFU, TNKS2 / Fold change vs veh, TNKS2 / RFU, ZFP14 / Fold change vs veh, ZFP14 / RFU, ACTR2 / Fold change vs veh, ACTR2 / RFU, PPP3R1 / Fold change vs veh, PPP3R1 / RFU, PIK3R1 / Fold change vs veh, PIK3R1 / RFU, HNRNPA1 / Fold change vs veh, HNRNPA1 / RFU, RNF170 / Fold change vs veh, RNF170 / RFU, ZNF28 / Fold change vs veh, ZNF28 / RFU, RNGTT / Fold change vs veh, RNGTT / RFU, OGT / Fold change vs veh, OGT / RFU, BRD1 / Fold change vs veh, BRD1 / RFU, MARS / Fold change vs veh, MARS / RFU, ZNF655 / Fold change vs veh, ZNF655 / RFU, FAHD1 / Fold change vs veh, FAHD1 / RFU, BDP1 / Fold change vs veh, BDP1 / RFU, LRRCC1 / Fold change vs veh, LRRCC1 / RFU, ARID1A / Fold change vs veh, ARID1A / RFU, ZNF146 / Fold change vs veh, ZNF146 / RFU, ZNF330 / Fold change vs veh, ZNF330 / RFU, GPN3 / Fold change vs veh, GPN3 / RFU, C9orf123 / Fold change vs veh, C9orf123 / RFU, N4BP2L2 / Fold change vs veh, N4BP2L2 / RFU, ARFIP1 / Fold change vs veh, ARFIP1 / RFU, FAM179B / Fold change vs veh, FAM179B / RFU, BCL10 / Fold change vs veh, BCL10 / RFU, UHRF1BP1L / Fold change vs veh, UHRF1BP1L / RFU, BET1 / Fold change vs veh, BET1 / RFU, CNOT2 / Fold change vs veh, CNOT2 / RFU, ZNF268 / Fold change vs veh, ZNF268 / Fold change vs veh, ZNF507 / RFU, DGCR2 / Fold change vs veh, DGCR2 / RFU, WDSUB1 / Fold change vs veh, WDSUB1 / Fold change vs veh, HSP90B1 /// MIR3652 / RFU, ADSS / Fold change vs veh, ADSS / RFU, GK / Fold change vs veh, GK / RFU, ZNF148 / Fold change vs veh, ZNF148 / RFU, TAF9 / Fold change vs veh, TAF9 / RFU, SLC1A5 / Fold change vs veh, SLC1A5 / RFU, SLMO2 / Fold change vs veh, SLMO2 / RFU, ABCC4 / Fold change vs veh, ABCC4 / RFU, LOC101060439 /// RAP1B / Fold change vs veh, LOC101060439 /// RAP1B / RFU, RFX7 / Fold change vs veh, RFX7 / RFU, GTPBP10 / Fold change vs veh, GTPBP10 / RFU, CNEP1R1 / Fold change vs veh, CNEP1R1 / RFU, BIVM-ERCC5 /// ERCC5 / Fold change vs veh, BIVM-ERCC5 /// ERCC5 / RFU, ILF3 / Fold change vs veh, ILF3 / RFU 11762660_at / Fold change /veh 11762660_at / RFU VCAN (11757783_s_at) / Fold change /veh VCAN (11757783_s_at) / RFU DDX43 (11728927_at) / Fold change /veh DDX43 (11728927_at) / RFU KRT8 (11758188_x_at) / Fold change /veh KRT8 (11758188_x_at) / RFU NKD1 (11759106_at) / Fold change /veh NKD1 (11759106_at) / RFU SRD5A1 (11742802_a_at) / Fold change /veh SRD5A1 (11742802_a_at) / RFU TPSAB1 /// TPSB2 (11721975_s_at) / Fold change /veh TPSAB1 /// TPSB2 (11721975_s_at) / RFU GSTM3 (11746129_a_at) / Fold change /veh GSTM3 (11746129_a_at) / RFU IL23R (11737362_x_at) / Fold change /veh IL23R (11737362_x_at) / RFU TMEM51 (11727254_a_at) / Fold change /veh TMEM51 (11727254_a_at) / RFU PIWIL2 (11732686_x_at) / Fold change /veh PIWIL2 (11732686_x_at) / RFU ORM1 (11744905_x_at) / Fold change /veh ORM1 (11744905_x_at) / RFU CCDC152 (11743942_at) / Fold change /veh CCDC152 (11743942_at) / RFU ECM1 (11717891_a_at) / Fold change /veh ECM1 (11717891_a_at) / RFU IL23R (11748794_a_at) / Fold change /veh IL23R (11748794_a_at) / RFU TNFAIP8L3 (11732012_x_at) / Fold change /veh TNFAIP8L3 (11732012_x_at) / RFU MBOAT4 (11741988_at) / Fold change /veh MBOAT4 (11741988_at) / RFU 11764193_at / Fold change /veh 11764193_at / RFU TMEM53 (11763286_at) / Fold change /veh TMEM53 (11763286_at) / RFU MAGEB2 (11727129_at) / Fold change /veh MAGEB2 (11727129_at) / RFU TMEM200A (11744735_a_at) / Fold change /veh TMEM200A (11744735_a_at) / RFU CCDC152 (11751479_a_at) / Fold change /veh CCDC152 (11751479_a_at) / RFU FAM211A (11726209_a_at) / Fold change /veh FAM211A (11726209_a_at) / RFU RGS16 (11746705_a_at) / Fold change /veh RGS16 (11746705_a_at) / RFU VCAN (11755009_s_at) / Fold change /veh VCAN (11755009_s_at) / RFU RHOB (11743442_s_at) / Fold change /veh RHOB (11743442_s_at) / RFU RGS16 (11720943_a_at) / Fold change /veh RGS16 (11720943_a_at) / RFU RGS16 (11720944_at) / Fold change /veh RGS16 (11720944_at) / RFU, VPS4B / Fold change vs veh, VPS4B / RFU, CREB1 / Fold change vs veh, CREB1 / RFU, DNAJC13 / Fold change vs veh, DNAJC13 / RFU, GNAQ / Fold change vs veh, GNAQ / RFU, CDK5R1 / Fold change vs veh, CDK5R1 / RFU, ZRANB3 / Fold change vs veh, ZRANB3 / RFU, CUL4A / Fold change vs veh, CUL4A / RFU, CCNY / Fold change vs veh, CCNY / RFU, UFL1 / Fold change vs veh, UFL1 / RFU, COG3 / Fold change vs veh, COG3 / RFU, DIAPH2 / Fold change vs veh, DIAPH2 / RFU, SKA2 / Fold change vs veh, SKA2 / RFU, AFF3 / Fold change vs veh, AFF3 / RFU, LMF1 / Fold change vs veh, LMF1 / RFU, IPO11 / Fold change vs veh, IPO11 / RFU, DFFB / Fold change vs veh, DFFB / RFU, FOXP1 / Fold change vs veh, FOXP1 / RFU, CARD8 / Fold change vs veh, CARD8 / RFU, STRN3 / Fold change vs veh, STRN3 / RFU, ADK / Fold change vs veh, ADK / RFU, RASSF2 / Fold change vs veh, RASSF2 / RFU, WIPF1 / Fold change vs veh, WIPF1 / RFU, LARP1B / Fold change vs veh, LARP1B / RFU, RASA1 / Fold change vs veh, RASA1 / RFU, RB1 / Fold change vs veh, RB1 / RFU, PPFIA1 / Fold change vs veh, PPFIA1 / RFU, MAT2A / Fold change vs veh, MAT2A / RFU, CCT5 / Fold change vs veh, CCT5 / RFU, WDR92 / Fold change vs veh, WDR92 / RFU, CUX1 / Fold change vs veh, CUX1 / RFU, TTC7A / Fold change vs veh, TTC7A / RFU, TMEM135 / Fold change vs veh, TMEM135 / RFU, DEPTOR / Fold change vs veh, DEPTOR / RFU, CPM / Fold change vs veh, CPM / RFU, DNAJB6 / Fold change vs veh, DNAJB6 / RFU, CACNA2D3 / Fold change vs veh, CACNA2D3 / RFU, DTX4 / Fold change vs veh, DTX4 / RFU, TFCP2 / Fold change vs veh, TFCP2 / RFU, GMCL1 /// GMCL1P1 / Fold change vs veh, GMCL1 /// GMCL1P1 / RFU, AEBP2 / Fold change vs veh, AEBP2 / RFU, SNHG1 /// SNORD22 /// SNORD25 /// SNORD26 /// SNORD27 /// SNORD28 /// SNORD29 /// SNORD31 / Fold change vs veh, SNHG1 /// SNORD22 /// SNORD25 /// SNORD26 /// SNORD27 /// SNORD28 /// SNORD29 /// SNORD31 / Fold change (Aza/veh), C12orf56 (ProbeSet 11735607_a_at) / Fold change (ACY-1035/veh), C12orf56 (ProbeSet 11735607_a_at) / Fold change (Aza/veh), FGFR1OP (ProbeSet 11751329_s_at) / Fold change (ACY-1035/veh), FGFR1OP (ProbeSet 11751329_s_at) / Fold change (Aza/veh), VPS36 (ProbeSet 11739960_a_at) / Fold change (ACY-1035/veh), VPS36 (ProbeSet 11739960_a_at) / RFU SYPL1 (11715823_x_at) / Fold change /veh SYPL1 (11715823_x_at) / RFU IGFBP7 (11715501_s_at) / Fold change /veh IGFBP7 (11715501_s_at) / RFU REEP3 (11722064_at) / Fold change /veh REEP3 (11722064_at) / RFU IGLL1 (11728026_x_at) / Fold change /veh IGLL1 (11728026_x_at): dose or concentration left out as unconfirmed
Conditions: ProbeSet 11716865_a_at; LIST B

Nc1ncn([C@@H]2O[C@H](CO)[C@@H](O)[C@H]2O)c(=O)n1 [azacitidine]
Fold change vs veh, SLC1A5: 0.87
